Results published in patent US7422848B2, “Hepatitis-B viral variants with reduced susceptibility to nucleoside analogs and uses thereof” (priority 2005, dated 2008).
“Also recorded” adds a separate entry of the source.

Key:
[1] = test system: wild type HBV; experiment: HBV replication in transiently transfected Huh7 cell lines (Real-time PCR), wild type HBV; details: supernatant at end of 5th day
[2] = test system: HBV; experiment: Example 3: second patient, antiviral therapy of HBV infection (HBV DNA, ALT, AST); format: in vivo, human; details: lamivudine (Zeffix) 100 mg/day; before breakthrough
Description: A person is a patient with HBsAg (+) and Anti-HBe (+).

[3] = test system: HBV; experiment: Published clinical studies of ADF (Perrillo 2004, Peters 2004, Angus 2003, Yang 2003); details: ADF added to the therapy; implied from cited studies
[4] = test system: HBV; details: human, in vivo; cited from earlier work
[5] = test system: HBV; experiment: Case study patient: antiviral therapy of chronic HBV infection (HBV DNA, ALT); format: in vivo, human; details: patient after clinical breakthrough, IFN 9 MU/TIW 6 months, Hepsera 10 mg/day 14 months
Method: HBV DNA levels were measured by using a commercial liquid-hybridization assay (Digene, Maryland, US), with the lower limit of detection of this assay being 5 pg/mL of viral DNA.
Lamuvidine was continued after the development of clinical breakthrough. […] Hepsera™ (Adefovir dipovoxil) 10 mg/day was added to lamivudine monotherapy at 44th month of initial antiviral therapy and 3 months after stopping IFN.
Blood counts and liver-function tests (alanine and aspartate aminotransferases) were done according to routine biochemical procedures (Olympus AU 2700 autoanalyzer, Japan).

[6] = 0.1 μM antiviral, 3 independent experiments
[7] = 1 μM antiviral, 3 independent experiments

SMILES	HBV replication in transiently transfected Huh7 cell lines (Mean log HBV copy number ± standard deviation) [1, 6] [log HBV copy number]	HBV replication in transiently transfected Huh7 cell lines (Mean log HBV copy number ± standard deviation) [1, 7] [log HBV copy number]	HBV DNA levels following lamivudine treatment [2]	HBV replication in transiently transfected Huh7 cell lines (Mean log HBV copy number ± standard deviation) ([1]; 10 μM antiviral, n.d. = not detectable)	Patients not achieving a significant reduction in HBV DNA levels [3]	Adefovir treated patients revealing the resistance mutation rtN236T [4]	ALT and HBV replication response when added to ongoing lamivudine (in words) [5]	ALT and HBV replication response when added to ongoing lamivudine (in words) ([5]; listed as Hepsera™)
Nc1ccn([C@@H]2CS[C@H](CO)O2)c(=O)n1 [3TC, β-L-(−)-2′,3′-dideoxy-3′-thiacytidine]	4.1 ± 0.8	2.32 ± 1.62	less than 5 pg/mL	–	–	–	–	–
Nc1ncnc2c1ncn2CCOCP(=O)(O)O [Adefovir, 9-(2-phosphonyl-methoxyethyl)-adenine]	1.15 ± 1.62	0.32 ± 0.58	–	no detectable HBV DNA	8-15%	1.7-2.5%	–	–
CC(C)(C)C(=O)OCOP(=O)(COCCn1cnc2c(N)ncnc21)OCOC(=O)C(C)(C)C [adefovir dipivoxil]	–	–	–	–	–	–	neither suppressed HBV replication nor decreased serum ALT levels	neither inhibition of HBV replication nor ALT normalization occurred; also recorded: did not lead to inhibition of HBV replication and ALT normalisation
